Patent US10316017B2, “COT modulators and methods of use thereof” (Gilead Sciences, Inc., priority 2015, dated 2019)

How the values were obtained:
[1] = tested on: TNFα production in LPS-stimulated human monocytes; experiment: Cot Monocyte TNFα Cell Based Assay; conditions: Homo sapiens, Monocyte, LPS-stimulated human monocytes, TNFα TR-FRET; read-out: EC50 TNF
Method in brief: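 TNFα release quantified by two-antibody TR-FRET, normalised to unstimulated (0%) and LPS-stimulated (100%) wells. Cells got a 1 h compound exposure at 37° C in 0.5% DMSO before 4 h challenge with 50 pg/ml LPS, at 5,000 cells/well.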

[2] = target: T1, human Cot catalytic domain (30-397 amino acids) (Homo sapiens, UniProt P41279); experiment: High Throughput Cot Biochemical Assay (KinEASE TR-FRET); conditions: Cot KinEASE TR-FRET, 400 μM ATP; read-out: IC50 HTRF
T1 construct: Purified recombinant human Cot catalytic domain (30-397 amino acids) was purchased from Cama Biosciences; purchased Cama Biosciences (so in the source)
T1 sequence (P41279 30-397): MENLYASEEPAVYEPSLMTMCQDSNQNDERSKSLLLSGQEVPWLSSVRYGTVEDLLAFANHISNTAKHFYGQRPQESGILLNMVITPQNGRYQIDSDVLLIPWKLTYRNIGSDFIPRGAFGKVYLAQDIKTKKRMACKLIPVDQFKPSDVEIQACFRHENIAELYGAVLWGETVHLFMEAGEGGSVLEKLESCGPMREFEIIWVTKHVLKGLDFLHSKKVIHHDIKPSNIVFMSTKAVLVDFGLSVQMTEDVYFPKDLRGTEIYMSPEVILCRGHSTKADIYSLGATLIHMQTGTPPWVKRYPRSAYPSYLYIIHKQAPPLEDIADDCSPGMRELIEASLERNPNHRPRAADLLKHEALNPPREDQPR
Method in brief: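 TR-FRET (KinEASE) read-out: Eu-labelled phospho-specific antibody binds XL665-tagged STK3 peptide (1 μM) phosphorylated by 5 nM human Cot kinase domain (residues 30-397). Reaction at 400 μM ATP, pH 7.0 MOPS buffer with 10 mM MgOAc, 1 mM DTT and 0.1% DMSO.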

SMILES: [2H][C@@](Nc1cc(Cl)c2ncc(C#N)c(NCC(C)(C)C)c2c1)(c1cn(C2(C)CC2)nn1)c1c(F)cccc1Cl [Example 1047, (S)-8-chloro-6-(((2-chloro-6-fluorophenyl)(1-(1-methylcyclopropyl)-1H-1,2,3-triazol-4-yl)methyl-d)amino)-4-(neopentylamino)quinoline-3-carbonitrile]
- EC50 [1]: ≥ 1000 nM
- IC50 [2]: 101 nM

SMILES: [2H]c1c([C@@]([2H])(Nc2cc(C#N)c3ncc(C#N)c(NCC(C)(C)C)c3c2)c2c(F)cccc2Cl)nnn1C1(C)CC1 [Example 1048, (S)-6-(((2-chloro-6-fluorophenyl)(1-(1-methylcyclopropyl)-1H-1,2,3-triazol-4-yl-5-d)methyl-d)amino)-4-(neopentylamino)quinoline-3,8-dicarbonitrile]
- EC50 [1]: 637 nM
- IC50 [2]: 33 nM

SMILES: Cc1c([C@H](Nc2cc(Cl)c3ncc(C#N)c(NCC(C)(C)C)c3c2)c2cn(C3(C(F)F)CC3)nn2)cccc1-n1cncn1 [Example 1049, (S)-8-chloro-6-(((1-(1-(difluoromethyl)cyclopropyl)-1H-1,2,3-triazol-4-yl)(2-methyl-3-(1H-1,2,4-triazol-1-yl)phenyl)methyl)amino)-4-(neopentylamino)quinoline-3-carbonitrile]
- EC50 [1]: 35 nM
- IC50 [2]: 2 nM

SMILES: Cc1c(-c2ncco2)cccc1[C@H](Nc1cc(Cl)c2ncc(C#N)c(NCC(C)(C)C)c2c1)c1cn(C2(C(F)(F)F)CC2)nn1 [Example 1050, (S)-8-chloro-6-(((2-methyl-3-(oxazol-2-yl)phenyl)(1-(1-(trifluoromethyl)cyclopropyl)-1H-1,2,3-triazol-4-yl)methyl)amino)-4-(neopentylamino)quinoline-3-carbonitrile]
- EC50 [1]: 202 nM
- IC50 [2]: 7 nM

SMILES: Cc1c(-c2ncco2)cccc1[C@H](Nc1cc(Cl)c2ncc(C#N)c(NCC(C)(C)C)c2c1)c1cn(C2(C(F)F)CC2)nn1 [Example 1051, (S)-8-chloro-6-(((1-(1-(difluoromethyl)cyclopropyl)-1H-1,2,3-triazol-4-yl)(2-methyl-3-(oxazol-2-yl)phenyl)methyl)amino)-4-(neopentylamino)quinoline-3-carbonitrile]
- EC50 [1]: 163 nM
- IC50 [2]: 4 nM

SMILES: CC(C)(C)CNc1c(C#N)cnc2c(Br)cc(N[C@H](c3cn(Cc4c(F)cccc4F)nn3)c3ccccc3Cl)cc12 [Example 1052, (S)-8-bromo-6-(((2-chlorophenyl)(1-(2,6-difluorobenzyl)-1H-1,2,3-triazol-4-yl)methyl)amino)-4-(neopentylamino)quinoline-3-carbonitrile]
- EC50 [1]: ≥ 1000 nM
- IC50 [2]: 189 nM

SMILES: CC(C)(C)CNc1c(C#N)cnc2c(C#N)cc(N[C@H](c3cn(Cc4c(F)cccc4F)nn3)c3ccccc3Cl)cc12 [Example 1053, (S)-6-(((2-chlorophenyl)(1-(2,6-difluorobenzyl)-1H-1,2,3-triazol-4-yl)methyl)amino)-4-(neopentylamino)quinoline-3,8-dicarbonitrile]
- EC50 [1]: 200 nM
- IC50 [2]: 26 nM

SMILES: Cc1c([C@H](Nc2cc(C#N)c3ncc(C#N)c(NCC(C)(C)C)c3c2)c2cn(C3(C(F)F)CC3)nn2)cccc1-n1cncn1 [Example 1054, (S)-6-(((1-(1-(difluoromethyl)cyclopropyl)-1H-1,2,3-triazol-4-yl)(2-methyl-3-(1H-1,2,4-triazol-1-yl)phenyl)methyl)amino)-4-(neopentylamino)quinoline-3,8-dicarbonitrile]
- EC50 [1]: 81 nM
- IC50 [2]: 1 nM

SMILES: Cc1c(-c2ncco2)cccc1[C@H](Nc1cc(C#N)c2ncc(C#N)c(NCC(C)(C)C)c2c1)c1cn(C2(C(F)(F)F)CC2)nn1 [Example 1055, (S)-6-(((2-methyl-3-(oxazol-2-yl)phenyl)(1-(1-(trifluoromethyl)cyclopropyl)-1H-1,2,3-triazo1-4-yl)methyl)amino)-4-(neopentylamino)quinoline-3,8-dicarbonitrile]
- EC50 [1]: 100 nM
- IC50 [2]: 3 nM
